Patent publication US12677834B2, “Silver silicalite zeolite nanomaterials for reducing Candida auris biofilms” (Imam Abdulrahman Bin Faisal University, priority 2023, dated 2026)

How the values were obtained:
[1] = test system: Candida auris biofilm; assay: Biofilm CFU killing assay (96-well microtiter plate, 24 and 48 h); type: cell-based; conditions: clade 3 (strain CA9), compared to clade 1 and clade 2; AgNO3 0.0250 to 0.0025 mg/mL
Procedure: C. auris strains, the clinical isolates, were used to study the effects of the nanomaterial on biofilm formation for 24 and 48 h. All analyses were performed with replicates, and mean values were considered. Initially, culture cells from preserved stock at -80° C. were revived by streaking onto Sabauraud dextrose agar (SDA) plates and incubating overnight at 37° C. From the revived plates, a loopful of the strains was inoculated into SDB and further incubated using an orbital shaker at 130 rpm and 37° C. for 24 and 48 h. The biofilm assay was carried out using the 96-well microtiter plate. The cells harvested from overnight SDB cultures were adjusted to a cell density of 10^7 CFU/mL and diluted. […] Post incubation, plates were manually counted and recorded for the number of cells. Later, the quantity of biofilm formation was determined using a colony-forming unit technique (CFU) and determined as per the following formula: A/B×100 (A is the total number of colonies after treatment and B is the number of cells in control). […] Later, the quantity of biofilm formation was determined using the CFU technique. […] Post incubation, plates were manually counted and recorded for the number of cells. Then, the quantity of biofilm formation was determined using the CFU technique and determined as per the following formula: CFU/mL=(Number of colonies×dilution factor)/volume of plated culture. […]

[2] = test system: planktonic C. auris; assay: Effect on planktonic C. auris by light microscopy; type: cell-based, Candida auris; conditions: clade 3 (strain CA9), compared to clade 1 and clade 2; AgNO3 0.0250 to 0.0025 mg/mL
Procedure: The antifungal activity of the nanomaterial on planktonic C. auris strains was determined by using light microscopy examination. Briefly, the inoculum was adjusted to a final concentration of 10^6 cells mL^−1. […] Plates were incubated at 37° C. for 48 h. […] The mean value of the duplicates was recorded, and micrographs were taken. One-way ANOVA analysis was carried out to identify the significance.

## O=[N+]([O-])[O-].[Ag+] [AgNO3, silver nitrate]
[1]
  inhibitory effect on the biofilm: complete inhibitory effect
[2]
  inhibitory effect on the planktonic cells: complete inhibitory effect
